Measured values: patent US9481654B2, “Compositions and methods for inhibition of the JAK pathway” (Rigel Pharmaceuticals, Inc., priority 2006, dated 2016)

Tests used:
Assay type in all cases: cell-based
[1] = tested on: IFNγ induced ICAM-1 (CD54) up-regulation in U937 human monocytic cells (JAK/Stat pathway); assay: U937 IFNγ ICAM1 FACS Assay; conditions: Table III Example 6; 10 ng/mL IFNγ, 18-24 hours
Excerpt: A549 lung epithelial cells and U937 cells up-regulate ICAM-1 (CD54) surface expression in response to a variety of different stimuli. Therefore, using ICAM-1 expression as readout, test compound effects on different signaling pathways can be assessed in the same cell type. Stimulation with IL-1β through the IL-1β receptor activates the TRAF6/NFκB pathway resulting in up-regulation of ICAM-1. IFNγ induces ICAM-1 up-regulation through activation of the JAK1/JAK2 pathway. The up-regulation of ICAM-1 can be quantified by flow cytometry across a compound dose curve and EC50 values are calculated. Exemplary assays of this type are described in greater detail in Examples 5 and 6. U937 human monocytic cells up-regulate ICAM-1 (CD54) surface expression in response to a variety of different stimuli. Therefore, using ICAM-1 expression as readout, compound effects on different signaling pathways can be assessed in the same cell type. IFNγ up-regulates ICAM-1 through activation of the JAK/Stat pathway. In this example, the up-regulation of ICAM-1 by IFNγ was assessed. […] The cells were then plated at a concentration of 100,000 cells per 160 μL in 96 well flat bottom plates. The test compounds were then diluted as follows: 10 mM test compound was diluted 1:5 in DMSO (3 μL 10 mM test compound in 12 μL DMSO), followed by a 1:3 serial dilution of test compound in DMSO (6 μL test compound serially diluted into 12 μL DMSO to give 3-fold dilutions). […] For control wells, 4 μL of DMSO was diluted into 76 μL 10% RPMI. […] The cells and compounds were then pre-incubated for 30 minutes at 37° C. with 5% CO2. […] The cells were kept under conditions for stimulation for 18-24 hours at 37° C. with 5% CO2. […] Cells were spun down at 1000 rpm for 5 minutes at 4° C., following which the supernatant was removed. […] The cells were then incubated on ice in the dark for 30 minutes. […] After suspension, the cells were centrifuged at 1000 rpm for 5 min at 4° C. […] Detection was performed using a BD LSR I System Flow Cytometer, purchased from BD Biosciences of San Jose, Calif. The live cells were gated for live scatter and the geometric mean of ICAM-APC was measured (Becton-Dickinson CellQuest software version 3.3, Franklin Lakes, N.J.). Both % live cells and ICAM-1 expression was analyzed. The assays for the test compounds were carried out in parallel with a control compound of known activity.

[2] = tested on: primary human T-cells (IL-2 induced proliferation, JAK-1/JAK-3, Stat-5); assay: Primary Human T-Cell Proliferation Assay Stimulated with IL-2 (CellTiter-Glo); conditions: Table III Example 4
Procedure, shortened: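 Read-out is intracellular ATP luminescence (CellTiter-Glo) after 72 h at 37 °C of IL-2-driven growth. Cells, pre-stimulated via TCR and CD28 then washed free of IL-2, were resuspended in Yssel's medium, given 80 U/mL IL-2 in the cell suspension plus duplicate compound; unstimulated wells lacked IL-2.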

[3] = tested on: IL-4 stimulated CD23 upregulation in human Ramos B cells (JAK-1/JAK-3, Stat-6); assay: Assay for Ramos B-Cell Line Stimulated with IL-4 (CD23 upregulation, FACS); conditions: Table III Example 3
Procedure, shortened: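 Flow cytometry of CD23 staining after 20-24 h IL-4 stimulation (50 units/mL final) of human Ramos B cells in RPMI with 5% serum. Cells, 5×10^4 per point, received compound or DMSO vehicle for 1 h at 37° C prior to stimulation.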

## Cc1ccc(Nc2ncc(F)c(Nc3ccc(CNS(=O)(=O)c4sc(N)nc4C)cc3)n2)cc1S(N)(=O)=O [Compound I-43, N4-[4-(2-amino-4-methylthiazol-5-yl)sulfonylaminomethyl]phenyl-N2-(3-aminosulfonyl-4-methyl)phenyl-5-fluoro-2,4-pyrimidinediamine]
[1]
  IC50: 37800 nM
[2]
  IC50: 1790 nM
[3]
  IC50: 537 nM

## Cc1cnc(Nc2ccc(S(N)(=O)=O)cc2)nc1Nc1ccc(CNS(=O)(=O)C2CC2)cc1 [Compound I-45, N2-(4-aminosulfonyl)phenyl-N4-(4-cyclopropylsulfonylaminomethyl)phenyl-5-methyl-2,4-pyrimidinediamine]
[1]
  IC50: 284 nM
[2]
  IC50: 29.3 nM
[3]
  IC50: 59.8 nM

## Cc1cnc(Nc2cccc(S(N)(=O)=O)c2)nc1Nc1ccc(CNS(=O)(=O)C2CC2)cc1 [Compound I-46, N2-(3-aminosulfonyl)phenyl-N4-(4-cyclopropylsulfonylaminomethyl)phenyl-5-methyl-2,4-pyrimidinediamine]
[1]
  IC50: 188 nM
[2]
  IC50: 24.9 nM
[3]
  IC50: 26.8 nM

## Cc1cnc(Nc2ccc(S(N)(=O)=O)cc2)nc1Nc1ccc(CCNS(=O)(=O)C2CC2)cc1 [Compound I-53, N2-(4-aminosulfonyl)phenyl-N4-[4-(2-cyclopropylsulfonylamino)ethyl]phenyl-5-methyl-2,4-pyrimidinediamine]
[1]
  IC50: 604 nM
[2]
  IC50: 175 nM
[3]
  IC50: 131 nM

## Cc1cnc(Nc2ccc(S(N)(=O)=O)cc2)nc1Nc1cccc(CNS(=O)(=O)C2CC2)c1 [Compound I-56, N2-(4-aminosulfonyl)phenyl-N4-(3-cyclopropylsulfonylaminomethyl)phenyl-5-methyl-2,4-pyrimidinediamine]
[1]
  IC50: 726 nM
[2]
  IC50: 310 nM
[3]
  IC50: 162 nM

## CC(C)S(=O)(=O)NCc1ccc(Nc2nc(Nc3cccc(S(N)(=O)=O)c3)ncc2F)cc1 [Compound I-66, N2-(3-aminosulfonyl)phenyl-5-fluoro-N4-(4-isopropylsulfonylaminomethyl)phenyl-2,4-pyrimidinediamine]
[1]
  IC50: 472 nM
[2]
  IC50: 65 nM
[3]
  IC50: 69.4 nM

## CCS(=O)(=O)NCc1ccc(Nc2nc(Nc3cccc(S(N)(=O)=O)c3)ncc2F)cc1Cl [Compound I-75, N2-(3-aminosulfonyl)phenyl-N4-(3-chloro-4-ethylsulfonylaminomethyl)phenyl-5-fluoro-2,4-pyrimidinediamine]
[1]
  IC50: 1200 nM
[2]
  IC50: 246 nM
[3]
  IC50: 181 nM

## CCCN(Cc1ccc(Nc2nc(Nc3ccc(S(N)(=O)=O)cc3)ncc2C)cc1)S(=O)(=O)C1CC1 [Compound I-79, N2-(4-aminosulfonyl)phenyl-N4-[4-(N-cyclopropylsulfonyl-N-propylamino)methyl]phenyl-5-methyl-2,4-pyrimidinediamine]
[1]
  IC50: 345 nM
[2]
  IC50: 92.3 nM
[3]
  IC50: 98 nM

## CCCN(Cc1ccc(Nc2nc(Nc3ccc(C)c(S(N)(=O)=O)c3)ncc2C)cc1)S(=O)(=O)C1CC1 [Compound I-81, N2-(3-aminosulfonyl-4-methyl)phenyl-N4-[4-(N-cyclopropylsulfonyl-N-propylamino)methyl]phenyl-5-methyl-2,4-pyrimidinediamine]
[1]
  IC50: 215 nM
[2]
  IC50: 89.2 nM
[3]
  IC50: 73.6 nM

## CCC(=O)NS(=O)(=O)c1ccc(Nc2ncc(C)c(Nc3ccc(CNS(=O)(=O)C4CC4)cc3)n2)cc1 [Compound I-83, N4-(4-cyclopropylsulfonylaminomethyl)phenyl-5-methyl-N2-(4-propionylaminosulfonyl)phenyl-2,4-pyrimidinediamine]
[1]
  IC50: 266 nM
[2]
  IC50: 152 nM
[3]
  IC50: 181 nM

## Cc1ccc(Nc2ncc(F)c(Nc3ccc(CNS(=O)(=O)c4cccnc4)cc3)n2)cc1S(N)(=O)=O [Compound I-90, N2-(3-aminosulfonyl-4-methyl)phenyl-5-fluoro-N4-[4-(pyrid-3-yl)sulfonylaminomethyl]phenyl-2,4-pyrimidinediamine]
[1]
  IC50: 2430 nM
[2]
  IC50: 349 nM
[3]
  IC50: 152 nM

## NS(=O)(=O)c1cccc(Nc2ncc(F)c(Nc3ccc(CNS(=O)(=O)c4cccnc4)cc3)n2)c1 [Compound I-95, N2-(3-aminosulfonyl)phenyl-5-fluoro-N4-[4-(pyrid-3-yl)sulfonylaminomethyl]phenyl-2,4-pyrimidinediamine]
[1]
  IC50: 2690 nM
[2]
  IC50: 286 nM
[3]
  IC50: 160 nM

## Cc1cnc(Nc2ccc(S(N)(=O)=O)cc2)nc1Nc1ccc(CNS(=O)(=O)CC(F)(F)F)cc1 [Compound I-96, N2-(4-aminosulfonyl)phenyl-5-methyl-N4-(4-trifluoroethylsulfonylaminomethyl)phenyl-2,4-pyrimidinediamine]
[1]
  IC50: 3670 nM
[2]
  IC50: 105 nM
[3]
  IC50: 74.4 nM

## Cc1ccc(Nc2ncc(C)c(Nc3ccc(CNS(=O)(=O)CC(F)(F)F)cc3)n2)cc1S(N)(=O)=O [Compound I-98, N2-(3-aminosulfonyl-4-methyl)phenyl-5-methyl-N4-(4-trifluoroethylsulfonylaminomethyl)phenyl-2,4-pyrimidinediamine]
[1]
  IC50: 152 nM
[2]
  IC50: 52.1 nM
[3]
  IC50: 25.3 nM

## Cc1cnc(Nc2cccc(S(N)(=O)=O)c2)nc1Nc1ccc(CNS(=O)(=O)c2cccnc2)cc1 [Compound I-100, N2-(3-aminosulfonyl)phenyl-5-methyl-N4-[4-(pyrid-3-yl)sulfonylaminomethyl]phenyl-2,4-pyrimidinediamine]
[1]
  IC50: 489 nM
[2]
  IC50: 153 nM
[3]
  IC50: 102 nM

## Cc1ccc(Nc2ncc(C)c(Nc3ccc(CNS(=O)(=O)c4cccnc4)cc3)n2)cc1S(N)(=O)=O [Compound I-101, N2-(3-aminosulfonyl-4-methyl)phenyl-5-methyl-N4-[4-(pyrid-3-yl)sulfonylaminomethyl]phenyl-2,4-pyrimidinediamine]
[1]
  IC50: 433 nM
[2]
  IC50: 224 nM
[3]
  IC50: 62.4 nM

## Cc1ccc(Nc2ncc(C)c(Nc3cccc(CN(C)S(=O)(=O)C4CC4)c3)n2)cc1S(N)(=O)=O [Compound I-122, N2-(3-aminosulfonyl-4-methyl)phenyl-N4-[3-(N-cyclopropylsulfonyl-N-methyl)aminomethyl]phenyl-5-methyl-2,4-pyrimidinediamine]
[1]
  IC50: 155 nM
[2]
  IC50: 88.3 nM
[3]
  IC50: 81.6 nM

## Cc1cnc(Nc2ccc(S(N)(=O)=O)cc2)nc1Nc1ccc(CN(C)S(=O)(=O)C2CC2)cc1 [Compound I-127, N2-(4-aminosulfonyl)phenyl-N4-[4-(N-cyclopropylsulfonyl-N-methyl)aminomethyl]phenyl-5-methyl-2,4-pyrimidinediamine]
[1]
  IC50: 616 nM
[2]
  IC50: 233 nM
[3]
  IC50: 126 nM

## CCOC(=NS(=O)(=O)c1cccc(Nc2ncc(C)c(Nc3cccc(CNS(=O)(=O)C4CC4)c3)n2)c1)OCC [Compound I-128, N4-(3-cyclopropylsulfonylaminomethyl)phenyl-N2-[3-(diethoxy)carbonimidylsulfonyl]phenyl-5-methyl-2,4-pyrimidinediamine]
[1]
  IC50: 707 nM
[2]
  IC50: 62.2 nM
[3]
  IC50: 157 nM

## Cc1cnc(Nc2ccc(S(N)(=O)=O)cc2)nc1Nc1ccc(CNS(=O)(=O)C2CC2)c(Cl)c1 [Compound I-129, N2-(4-aminosulfonyl)phenyl-N4-(3-chloro-4-cyclopropylsulfonylaminomethyl)phenyl-5-methyl-2,4-pyrimidinediamine]
[1]
  IC50: 2510 nM
[2]
  IC50: 432 nM
[3]
  IC50: 161 nM

## Cc1cnc(Nc2cccc(S(=O)(=O)Nc3ccccc3)c2)nc1Nc1ccc(CNS(=O)(=O)C2CC2)cc1 [Compound I-150, N4-(4-cyclopropylsulfonylaminomethyl)phenyl-5-methyl-N2-(3-phenylaminosulfonyl)phenyl-2,4-pyrimidinediamine]
[1]
  IC50: 565 nM
[2]
  IC50: 127 nM
[3]
  IC50: 88.6 nM
